Results from patent US10920230B2, “Methylotrophs for aquaculture and animal feed” (KnipBio, Inc., priority 2013, dated 2021).
Values after ≈ are worked out from the molar mass of the structure shown.

Assays:
[1] = tested on: cumate inducible PmxaF promoter; assay: Fluorescence-based mCherry expression assay, pHC115m; type: cell-based, M. extorquens; settings: uninduced 15.6±1.5
Protocol: Assays to measure levels of mCherry protein expression were performed as follows. For dose-dependent response curves, M. extorquens strains harboring pJP18T or pJP22T were grown to saturation in 10 mL of Hypho-succinate medium. These cultures were then diluted 1:200 in fresh medium, followed by 630 μL aliquots being dispensed to clear, flat-bottom, 48-well microtiter plates (Costar). Cultures were grown for 4 hours on a plate shaking tower (Caliper) at 150 rpm in a 30° C. humidified room. After 4 hours of growth, 10 μl of fresh medium containing Q or aTc was added to supply Q and aTc at desired concentrations. Cultures were allowed to continue growth for an additional 24 hours prior to fluorescence (excitation 587 nm/emission 610 nm) and optical density (600 nm) measurements made using a Tecan Safire2 plate reader. Relative fluorescence values reported are: Relative fluorescence (A.U.)=RFU/OD600*10^−3.

PR/cmtO promoter = assay: Fluorescence-based mCherry expression assay, pJP18T; type: cell-based, M. extorquens
Description: (§1) A desirable property for regulated expression systems is for levels of gene expression from the promoter to be proportional to the concentration of inducer. In order to explore the range of induction of PR/cmtO and PR/tetO, the promoters along with their respective regulatory proteins were introduced onto broad-host-range plasmids (IncP compatibility group) to create the expression vectors pLC290 and pLC291 (FIG. 8 in U.S. Ser. No. 61/863,701). […] We placed the red-fluorescent protein variant mCherry under the control of each promoter in pLC290 and pLC291 and introduced the resulting vectors (pJP18T and pJP22T) into M. extorquens. To induce expression from PR/cmtO and PR/tetO, we supplied varied concentrations of cumate (Q) and anhydrotetracycline (aTc), respectively, to M. extorquens cultures.
(§2) Assays to measure levels of mCherry protein expression were performed as follows. For dose-dependent response curves, M. extorquens strains harboring pJP18T or pJP22T were grown to saturation in 10 mL of Hypho-succinate medium. […] Cultures were allowed to continue growth for an additional 24 hours prior to fluorescence (excitation 587 nm/emission 610 nm) and optical density (600 nm) measurements made using a Tecan Safire2 plate reader. Relative fluorescence values reported are: Relative fluorescence (A.U.)=RFU/OD600*10^−3.

PR/tetO promoter = assay: Fluorescence-based mCherry expression assay, pJP22T; type: cell-based, M. extorquens
Description: as §1, §2

[2] = tested on: wild-type B. fungorum LB400; assay: microbe, parasite or virus in culture; settings: Paraburkholderia fungorum
Protocol: The minimal inhibitory concentration (MIC) of formaldehyde was determined by comparing the rate and extent of colony formation of wild-type B. fungorum LB400 to that of the flhA mutants CM363K.1 and CM363.1 on solid medium containing succinate as a growth substrate with various concentrations of formaldehyde. Formaldehyde was added to the plates immediately prior to the addition of the molten agar.

CC(C)c1ccc(C(=O)O)cc1 [Q, p-isopropyl benzoate] was tested, and the “relative fluorescence, induced” value [1] was 157.1±3.7 A.U, the “induction (regulatory range)” value (PR/cmtO promoter; induced versus uninduced) was 10 fold and the “relative fluorescence (crosstalk)” value (PR/tetO promoter; pJP22T with the non-cognate inducer, grown in succinate, uninduced 1.0) was 1.1 A.U.
For Cc1c2c(c(O)c3c(O)cccc13)C(=O)[C@]1(O)C(=O)C(C(N)=O)=C(O)[C@@H](N(C)C)[C@@H]1C2 [aTc, anhydrotetracycline], the “relative fluorescence (crosstalk)” value (PR/cmtO promoter; pJP18T with the non-cognate inducer, grown in succinate, uninduced 4.6) was 4.2 A.U and the “induction (regulatory range)” value (PR/tetO promoter; induced versus uninduced) was 30 fold.
C=O [formaldehyde] showed an MIC [2] of 200 µM (≈ 6.01 µg/mL).
